Data from PMC5534107, “Sensitization of ASIC3 by proteinase-activated receptor 2 signaling contributes to acidosis-induced nociception” (Journal of Neuroinflammation, 2017).

Legend:
[1] = tested on: ASIC3 currents in CHO cells co-expressing ASIC3 and PAR2; assay: Whole-cell patch clamp of proton-gated currents (I pH 6.6) in CHO cells co-expressing ASIC3 and PAR2; type: cell-based, Chinese hamster
Experimental: ASIC3, ASIC1a, ASIC1b, ASIC2b, and PAR2 complementary DNAs (cDNAs) were used for heterologous expression in CHO cells as described previously (Wang et al., 2013). In brief, CHO cells were cultured at 37 °C in a humidified atmosphere of 5% CO2 and […] and passaged twice a week. Transient transfection of CHO cells was performed using HilyMax liposome transfection reagent (Dojindo Laboratories). CHO cells were maintained in F-12 Nutrient Mixture (added 1.176 g of NaHCO3/L medium) supplemented with 10% fetal bovine serum and 1% gluta-MAXTM-1 (100×; Invitrogen). When ASIC3 and PAR2 cDNAs were co-transfected, the ratio was kept at 1:1. All plasmids used contained, in addition to the desired ASIC3 cDNA, the coding sequence for enhanced green fluorescent protein to aid identification of transfected cells. Electrophysiological measurements were performed 24–48 h after transfection.
(§1) Whole-cell patch clamp and voltage clamp recordings were carried out at room temperature (22–25 °C) using a MultiClamp-700B amplifier and Digidata-1440A A/D converter (Axon Instruments, CA, USA). Recording pipettes were pulled using a Sutter P-97 puller (Sutter Instruments, CA, USA). The micropipettes were filled with internal solution containing (mM) KCl 140, MgCl2 2.5, HEPES 10, EGTA 11, and ATP 5; its pH was adjusted to 7.2 with KOH, and osmolarity was adjusted to 310 mOsm/L with sucrose. Cells were bathed in an external solution containing (mM) NaCl 150, KCl 5, CaCl2 2.5, MgCl2 2, HEPES 10, D-glucose 10; its osmolarity was adjusted to 330 mOsm/L with sucrose and its pH to 7.4. The resistance of the recording pipette was in the range of 3–6 MΩ. A small patch of membrane underneath the tip of the pipette was aspirated to form a giga seal, and then, a negative pressure was applied to rupture it, thus establishing a whole-cell configuration. The series resistance was compensated for by 70–80%. The adjustment of capacitance compensation was also done before recording the membrane currents. The membrane voltage was maintained at −60 mV in all voltage clamp experiments unless otherwise specified. Current clamp recordings were obtained by switching to current clamp mode after a stable whole-cell configuration was formed in voltage clamp mode. Only cells with a stable resting membrane potential (more negative than −50 mV) were used in the study. Signals were sampled at 10 to 50 kHz and filtered at 2 to 10 kHz, and the data were stored in compatible PC computer for off-online analysis using the pCLAMP 10 acquisition software (Axon Instruments, CA, USA).
Drugs purchased from Sigma and used in the experiments include hydrochloric acid, 2-furoyl-LIGRLO-NH2 (a PAR2-activating peptide (PAR2-AP)), trypsin, FSLLRY-NH2, APETx2, and capsazepine. Different pH values were configured with hydrochloric acid and external solution. All drugs were dissolved daily in the external solution just before use and held in a linear array of fused silica tubes (o.d./i.d. = 500 μm/200 μm) connected to a series of independent reservoirs. The application pipette tips were positioned ∼30 μm away from the recorded neurons. The application of each drug was driven by gravity and controlled by the corresponding valve, and rapid solution exchange could be achieved within about 100 ms by shifting the tubes horizontally with a PC-controlled micromanipulator. Cells were constantly bathed in normal external solution flowing from one tube connected to a larger reservoir between drug applications. In some experiments where GDP-β-S (Sigma), U-73122(Sigma), and GF109203X (RBI) were applied for intracellular dialysis through recording patch pipettes, they were dissolved in the internal solution before use. To ensure that the cell interior was perfused with the dialysis drug, there was at least a 30-min interval between the establishment of whole-cell access and the current measurement. […]

[2] = tested on: ASIC3-like currents in rat DRG neurons; assay: Voltage clamp of proton-evoked ASIC3-like currents in acutely isolated rat DRG neurons; type: cell-based; details: 10^−5 M for 1 min; capsazepine 10 μM present; −60 mV; n = 9
Source text: The experimental protocol was approved by the animal research ethics committee of Hubei University of Science and Technology (No. 2016–67). All procedures conformed to international guidelines on the ethical use of animals, and every effort was made to minimize the number of animals used and their sufferings. Five- to 6-week-old Sprague–Dawley male rats were anesthetized with 7% chloral hydrate and then decapitated. The DRGs were taken out and transferred immediately into Dulbecco’s modified Eagle’s medium (DMEM, Sigma) at pH 7.4. After the removal of the surrounding connective tissues, the DRGs were minced with fine spring scissors and the ganglion fragments were placed in a flask containing 5 ml of DMEM in which trypsin (type II-S, Sigma) 0.5 mg/ml, collagenase (type I-A, Sigma) 1.0 mg/ml, and DNase (type IV, Sigma) 0.1 mg/ml had been dissolved and incubated at 35 °C in a shaking water bath for 25–30 min. Soybean trypsin inhibitor (type II-S, Sigma) 1.25 mg/ml was then added to stop trypsin digestion. The incubating solution was then replaced by external solution. Dissociated neurons were placed into a 35-mm Petri dish and kept for at least 1 h in normal external solution before the start of electrophysiological experiments. After plating of the DRG neurons, the neurons were used for experiments within 24 h. The neurons selected for electrophysiological experiment were 15–35 μm in diameter.
as §1, with “The membrane voltage was maintained at −60 mV in all voltage clamp experiments unless otherwise specified. Current clamp recordings were obtained by switching to current clamp mode after a stable whole-cell configuration was formed in voltage clamp mode. Only cells with a stable resting membrane potential (more negative than −50 mV) were used in the study. Signals were sampled at 10 to 50 kHz and filtered at 2 to 10 kHz, and the data were stored in compatible PC computer for off-online analysis using the pCLAMP 10 acquisition software (Axon Instruments, CA, USA).” left out
Drugs purchased from Sigma and used in the experiments include hydrochloric acid, 2-furoyl-LIGRLO-NH2 (a PAR2-activating peptide (PAR2-AP)), trypsin, FSLLRY-NH2, APETx2, and capsazepine. […] The application pipette tips were positioned ∼30 μm away from the recorded neurons. […]

## 2-furoyl-LIGRLO-NH2 [PAR2-AP]
[1]; 10^−4 M, pre-applied 1 min, I pH 6.6, n = 9
  maximum effect (potentiation of ASIC3 currents): 66.6 ± 7.5%
[1]; 10^−5 M for 1 min, n = 10
  increase of peak amplitude of I pH 6.6 after pretreatment with agonist alone: 61.6 ± 4.6%
[1]; I pH 6.6 for 5 s, PAR2-AP 10^−9–10^−4 M pre-applied 1 min, −60 mV, mean ± SEM of 8 to 10 cells, read-out: EC50 of PAR2-AP for potentiation of peak amplitude of proton-gated (ASIC3) currents
  EC50: 290 nM
[1]; PAR2-AP 10^−5 M
  threshold pH value of proton concentration–response curve in presence vs absence of PAR2-AP: no significant difference
[1]; PAR2-AP 10^−5 M pre-applied, proton concentration–response curve, 8 to 10 cells
  increase in the maximal current response to protons: 58.7 ± 3.8%
[1]; PAR2-AP 10^−5 M, 2.36 ± 0.13 in its absence, P > 0.1
  Hill coefficient of proton concentration–response curve in the presence of PAR2-AP: 2.28 ± 0.15
[1]; PAR2-AP 10^−5 M, 3.58 ± 0.29 without
  Hill coefficient of steady-state desensitization with PAR2-AP: 3.65 ± 0.35
[1]; PAR2-AP 10^−5 M, 6.70 ± 0.02 without, P > 0.1
  pH50 (pH for half-maximal current response) with PAR2-AP pretreatment: 6.71 ± 0.04
[1]; PAR2-AP 10^−5 M, conditioning pH 7.6 to 6.6 for 2 min, then pH 6.0, 7.16 ± 0.01 without, P < 0.05, 6 to 8 cells
  pH50 for steady-state desensitization in the presence of PAR2-AP: 7.05 ± 0.02
[1]; potentiation of I pH 6.6, pre-applied 1 min
  Hill coefficient of the concentration–response curve for PAR2-AP: 0.76
[2]
  increase of peak amplitude of I pH 6.6 in DRG neurons after agonist pretreatment: 57.1 ± 9.8%
